Broadly, the IC50 is the midpoint of a concentration-inhibition curve. A higher IC50 goes with lower potency.

In this test the target is T1, Mucosa-associated lymphoid tissue lymphoma translocation protein 1 (Homo sapiens, UniProt Q9UDY8).
T1 sequence (Q9UDY8 whole entry): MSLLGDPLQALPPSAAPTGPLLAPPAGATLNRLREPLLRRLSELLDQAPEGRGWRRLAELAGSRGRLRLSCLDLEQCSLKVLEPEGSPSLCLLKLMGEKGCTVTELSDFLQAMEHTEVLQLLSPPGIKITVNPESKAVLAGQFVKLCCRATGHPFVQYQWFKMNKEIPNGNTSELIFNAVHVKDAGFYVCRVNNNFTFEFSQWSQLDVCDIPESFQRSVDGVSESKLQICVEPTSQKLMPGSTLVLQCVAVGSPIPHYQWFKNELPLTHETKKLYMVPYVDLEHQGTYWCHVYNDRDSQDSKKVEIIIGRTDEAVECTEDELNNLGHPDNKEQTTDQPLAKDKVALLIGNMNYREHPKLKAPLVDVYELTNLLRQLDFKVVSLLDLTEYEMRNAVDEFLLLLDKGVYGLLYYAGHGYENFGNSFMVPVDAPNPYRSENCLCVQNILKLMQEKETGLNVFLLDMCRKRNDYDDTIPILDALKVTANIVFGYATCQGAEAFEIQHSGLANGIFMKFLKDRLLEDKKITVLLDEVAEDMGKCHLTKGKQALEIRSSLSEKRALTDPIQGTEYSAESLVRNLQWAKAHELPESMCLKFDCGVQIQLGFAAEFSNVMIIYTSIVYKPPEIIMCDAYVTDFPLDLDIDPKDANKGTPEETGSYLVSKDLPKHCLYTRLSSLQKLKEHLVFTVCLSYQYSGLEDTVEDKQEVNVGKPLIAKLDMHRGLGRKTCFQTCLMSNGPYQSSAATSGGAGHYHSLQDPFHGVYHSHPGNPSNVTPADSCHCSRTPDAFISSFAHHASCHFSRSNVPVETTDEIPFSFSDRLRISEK
Description: Inhibition of full length his-tagged MALT1 (1 to 824 residues) (unknown origin) expressed in Baculovirus infected in insect cells using tetrapeptide-[…]-AMC as fluorescent substrate preincubated for 50 mins followed by substrate addition and measured after 4 hrs by fluorescence based analysis.
`CC(C)(C)NC(=O)[C@]1(C)[C@@H](c2ccc(N3C[C@@](C)(C(F)(F)F)c4c3cnc3cc(Cl)nn43)cc2)C1(F)F` yielded a half-maximal inhibitory concentration (IC50) of 6 nM.
The result for `C[C@@]1(C(F)(F)F)CN(c2ccc([C@H]3C(F)(F)[C@]3(C)C(=O)NCC3CNC(=O)C3)cc2)c2cnc3cc(Cl)nn3c21` (stereo partly specified) reads 6 nM; that for `C[C@@]1(C(F)(F)F)CN(c2ccc([C@H]3C(F)(F)[C@]3(CO)C(N)=O)cc2)c2cnc3cc(Cl)nn3c21`, 5 nM.
As to `C[C@@]1(C(F)(F)F)CN(c2ccc([C@H]3C(F)(F)[C@]3(C)C(=O)N[C@H]3C[C@@H](C[S+](C)(=N)[O-])C3)cc2)c2cnc3cc(Cl)nn3c21` (stereo partly specified), the IC50 stood at 6 nM.
For `C[C@@]1(C(F)(F)F)CN(c2ccc([C@H]3C(F)(F)[C@]3(C)C(=O)NCCS(N)(=O)=O)cc2)c2cnc3cc(Cl)nn3c21`, the 50% inhibitory concentration (IC50) turned out to be 6 nM.
Next, `C[C@@]1(C(F)(F)F)CN(c2ccc([C@H]3C(F)(F)[C@]3(C)C(=O)NCC(N)=O)cc2)c2cnc3cc(Cl)nn3c21`: 5 nM.

Values taken from ChEMBL document CHEMBL6074639, “MALT1 Inhibitors for Treating Cancer and Immunological Diseases” (ACS Med Chem Lett, 2024).
